These results are taken from the METLIN SMRT retention time set (Domingo-Almenara et al. 2019).

Each structure is given as a SMILES string.

A short description of the data set: gradient 5% acetonitrile 3 min, to 50% in 2 min, to 85% in 15 min, held 3 min, 100 µL/min. To be noted: column: Zorbax Extend-C18 2.1 x 50 mm; eluents: water / acetonitrile, 0.1% formic acid. A digest of the protocol:
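In both positive and negative ionization mode, a quadrupole time-of-flight mass spectrometer coupled to HPLC analyzed pure standards run in mixtures of ~100 molecules. The Zorbax Extend-C18 column (2.1 × 50 mm, 1.8 μm) was operated at 100 μL/min with water and acetonitrile, each containing 0.1% formic acid. The dead volume was 40 μL and the dwell volume 900 μL. Retention time came from adduct peaks that were computationally picked and individually inspected by hand.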
On to `Cc1noc(-c2cccc(OC3CN(C(=O)NCc4ccccc4)C3)c2)n1`, for which the RP-LC retention time was found to be 830 s.

`CCn1ccc2cc(S(=O)(=O)N3CCC(C(=O)NC(C)Cc4ccco4)CC3)ccc21` (stereo unspecified) showed an RP-LC retention time of 905 s.

Molecule `O=C(c1cn2c(n1)CCCC2)N(Cc1ccccc1)Cc1ccco1` returned an RP-LC retention time of 668 s.

Consider `CCC(C)C(NC(=O)c1ccc(F)cc1)C(=O)Nc1nc2ccccc2[nH]1` (stereo unspecified), for which the RP-LC retention time was 746 s. The value for `Cc1oc(C2CCN(S(=O)(=O)CCc3ccccc3)CC2)nc1C(=O)N1CCCC1` was 917 s; that for `NC(=O)/C(=C\c1ccncc1)c1cccc2ccccc12` was 647 s.

`O=S(=O)(c1ccc2ccccc2c1)N1CCC(c2nc(-c3ccccn3)no2)CC1` returned an RP-LC retention time of 952 s. The value for `COCCOCC1CCN(C(=O)CNC(=O)c2ccccc2)CC1` was 620 s; that for `Cc1ccccc1CNC(=O)Cn1cccc1-c1nnc(-c2ccccc2)o1` was 950 s. `Cc1ccccc1N1CCN(C(=O)C2CC(=O)N(CCc3ccccc3)C2)CC1` (stereo unspecified) yielded an RP-LC retention time of 725 s.

The molecule `O=C(c1ccc(Cl)cc1)N1CCC(n2c(-c3ccoc3)nc3cccnc32)C1` (stereo unspecified) returned an RP-LC retention time of 782 s. The same measure for `O=C(c1ccccn1)N1CCC(n2c(-c3ccsc3)nc3cccnc32)C1` (stereo unspecified): 625 s; for `O=C(Nc1nncs1)C1CCN(C(=O)c2ccccc2F)CC1`: 641 s; for `O=C(C1=CN(c2ccc(Br)cc2)c2cc(F)ccc2S1(=O)=O)N1CCOCC1`: 826 s.

In the case of `Cc1ccc(NC(=O)C2CCN(S(=O)(=O)c3cc(-c4noc(C5CC5)n4)cs3)CC2)cc1`, the RP-LC retention time was 1050 s.

For `CC1CCN(CCCNC(=O)C2CCc3sc(C(=O)N4CCCC4)cc3C2)CC1` (stereo unspecified), the RP-LC retention time amounted to 610 s. The value for `CCc1cccc(C)c1Nc1c(-c2ccc(C(=O)NC(C)C)cc2)nc2cnccn12` was 814 s; that for `COc1ccc(NC(=O)Cn2nc3cc(C)nc(Nc4ccc(C)c(C)c4)n3c2=O)cc1` was 1090 s. The same measure for `CC1=C(c2ccc(C)c(C)c2)S(=O)(=O)N=C1N1CCCN(C(=O)c2ccncc2)CC1`: 692 s; for `O=C1CN(S(=O)(=O)c2ccc([N+](=O)[O-])cc2)c2ccccc2N1`: 738 s; for `CCc1nc2ccc(-c3noc(-c4ccsc4)n3)cc2n1CC`: 698 s.

Consider `COc1ccc(-c2ccc(N3CCN(c4ccccn4)CC3)nn2)cc1S(=O)(=O)N1CCOCC1`, for which the RP-LC retention time was found to be 572 s.

Consider `CCC(C)(C)NC(=O)c1ccc2c(c1)N(C(=O)NC)CC2`, for which the RP-LC retention time was 705 s. The same measure for `O=C(c1noc2c1CSc1ccccc1-2)N1CCN(c2ccccn2)CC1`: 719 s; for `Cc1cc(S(=O)(=O)N2CCN(c3cnn4c(C)nnc4c3)CC2)ccc1F`: 708 s; for `O=C(CN1CCC(c2nc(-c3cccc(F)c3)no2)CC1)Nc1ccc2c(c1)OCO2`: 719 s. Consider `Cc1ccsc1C(=O)NCCn1c(=O)n(Cc2ccc(F)cc2)c2cccnc21`, for which the RP-LC retention time worked out at 824 s. Take `O=C(C1CCCN(c2cnc3nccnc3c2)C1)N1CCN(c2ccc(F)cc2)CC1` (stereo unspecified): the RP-LC retention time worked out at 746 s.

Consider `Nc1nc(OCc2cc(Br)cs2)c2[nH]cnc2n1`, for which the RP-LC retention time amounted to 687 s. The value for `COc1cccc(NC(=O)NCCc2nc3cccnc3n2C2CCCC2)c1` was 696 s. The same measure for `CSc1ncn(-c2nc(N(C)C)nc(N3CCCCCC3)n2)n1`: 1200 s; for `CCC(=O)N(C1CCOCC1)C1CCN(S(=O)(=O)c2cc(F)cc(F)c2)CC1`: 856 s.

Molecule `COc1ccc(OCC(=O)N2CCN(Cc3noc4ccccc34)CC2)cc1` yielded an RP-LC retention time of 711 s. The same measure for `COc1ccc(Cl)cc1NC(=O)c1csc(-c2cn(C)c3ncccc23)n1`: 1230 s; for `O=C(Cc1ccsc1)Nc1ccc2ncnc(N3CCCCC3)c2c1`: 666 s.

`COCCCNC(=O)Cn1cnc2onc(-c3ccc(Cl)cc3)c2c1=O` had an RP-LC retention time of 792 s.

Molecule `Cn1nc(-c2nnc(-c3ccc(F)cc3)o2)c2c1CCN(S(=O)(=O)c1ccc(Cl)s1)C2` showed an RP-LC retention time of 1010 s. The same measure for `CCCCCCC(=O)OC1CC(C)(C)NC(C)(C)C1`: 707 s. The value for `COCc1nncn1C1CN(C(=O)Cc2cc(OC)ccc2OC)C1` was 610 s.

Consider `CCOc1ccc(S(=O)(=O)N(C)C2CCc3nn(CC4CC4)c(=O)n3CC2)cc1` (stereo unspecified), for which the RP-LC retention time was determined as 804 s. The same measure for `O=C(NCc1ccc(F)cc1F)c1c(O)c2cccnc2n(-c2ccccc2)c1=O`: 1200 s; for `COc1cccc(CNC2=NCCNC23CCN(S(=O)(=O)c2ccc4c(c2)CCCC4)CC3)c1`: 822 s. `CCc1nncn1C1CCN(C(=O)c2cc(F)ccc2F)CC1` registered an RP-LC retention time of 604 s. For the molecule `O=C(COc1ccc(Cl)cc1)NCC1(O)CCOCC1`, the RP-LC retention time amounted to 623 s. The value for `COc1cccc(C(O)CN2CCN(c3ccccc3F)CC2)c1` (stereo unspecified) was 654 s; that for `O=C(Cc1cn(Cc2ccccc2)c2ccccc12)NCc1cccs1` was 929 s. The same measure for `CCOC(=O)c1noc2nc(C)nc(Nc3ccc(F)cc3)c12`: 962 s; for `CC(C)(C)C(O)CCNC(=O)Cc1cccs1` (stereo unspecified): 673 s. For the molecule `O=C(C1CC=CC1)N1CCC2(CC1)NCCc1c2[nH]c2ccccc12`, the RP-LC retention time stood at 643 s.

Regarding `Cc1ccc(C)c(NC(=O)N2CCC(n3cnc4ccc(Cl)cc4c3=O)CC2)c1`, the RP-LC retention time came to 929 s. The value for `COc1ccc(NC(=O)C2CCCN(c3nccnc3Sc3ccccc3)C2)c(OC)c1` (stereo unspecified) was 1060 s; that for `Cc1cccc2c(C(=O)NC3CC3)c3c(nc12)CCC3` was 606 s. The value for `CCCNC(=O)c1ccc2cnn(C)c2c1` was 673 s.

Molecule `CC(C)N1CCN(C(=O)C2CC(=O)N(c3ccc4c(c3)CCN4C(=O)C3CC3)C2)CC1` (stereo unspecified) returned an RP-LC retention time of 579 s.

`COc1ccc(OC)c(NC(=O)Cn2c(=O)c(CCC(=O)NCC(C)C)nc3ccccc32)c1` displayed an RP-LC retention time of 798 s. The value for `CN1C(=O)CCC2(CNC(=O)Nc3ccc4c(c3)OCCO4)CCCC=C12` (stereo unspecified) was 722 s. The same measure for `CC(C)n1cnnc1C1CCN(C(=O)Cc2c[nH]c3ccccc23)CC1`: 626 s; for `CCCN1CCCCc2cc(C(=O)N(C)CC(=O)NC)sc21`: 791 s. The same measure for `O=C(Nc1cccc(C(F)(F)F)c1)N1CCC(n2cnnc2C2CC2)C1` (stereo unspecified): 701 s. `COc1ccc(CNC(=O)c2nc3cccnc3n(C)c2=O)cc1`: the RP-LC retention time was determined as 742 s. The same measure for `CCn1c(C(=O)NCCCc2ccccc2)cc2c(-c3cccs3)nn(-c3ccccc3)c21`: 1280 s; for `O=C(NCc1ccccc1)c1nnc(-c2ccc(S(=O)(=O)N3CCCC3)cc2)o1`: 879 s; for `Cc1nn(-c2ccccc2)c(C)c1S(=O)(=O)N1CCC(C(=O)NC2CCCCCC2)CC1`: 965 s. The same measure for `O=c1c2ccccc2c(-c2nc(-c3cccnc3)no2)cn1-c1ccccc1`: 1010 s; for `Cc1cc(N2CCN(C)CC2)nc2ccc(NC(=O)Nc3cccc(Cl)c3)cc12`: 590 s; for `CNC(=O)c1cc(-c2cccc(OC)c2)n[nH]1`: 665 s. The same measure for `O=C(N1CCN(S(=O)(=O)c2cccnc2)CC1)N1C[C@H]2C[C@H](C1)[C@H]1CCCC(=O)N1C2`: 629 s; for `CC(=O)Nc1cccc(-c2nc(-c3ccc4c(c3)nnn4C3CCCC3)no2)c1`: 1010 s.

Regarding `CC(C)n1cnc(S(=O)(=O)N2CCC(C(=O)NC3CCCCCCC3)CC2)c1`, the RP-LC retention time is 827 s. The same measure for `Cc1ccc(CNC(=O)Cn2ccc3sccc3c2=O)cc1`: 740 s; for `CCCC(=O)Nc1ccc(-c2nc(-c3ccccc3)co2)cc1`: 1010 s. `Cc1cccc(NC(=O)Cc2csc3nc(-c4cccc(Br)c4)cn23)c1C` had an RP-LC retention time of 983 s. The same measure for `O=C(NCc1csc(-c2cccs2)n1)C1CCN(C(=O)COc2ccccc2)CC1`: 770 s; for `CC(=O)Nc1cc2c(cc1Sc1ccc(Cl)cc1)n(C)c(=O)n2C`: 806 s. The same measure for `CCOc1ccc(-c2noc(Cc3nnc(-c4cccc(Br)c4)o3)n2)cc1`: 1160 s. The same measure for `CCCNC(=O)CCc1nc2ccccc2n(CC(=O)Nc2ccc(OC)c(Cl)c2)c1=O`: 805 s.

Take `Cc1cnc(CC2CCN(C(=O)N(C)C)C2)n1Cc1ccccc1` (stereo unspecified): the RP-LC retention time was 609 s.

Regarding `COC(=O)c1ccccc1NC(=O)N1CCc2nc[nH]c2C1`, the RP-LC retention time was found to be 596 s. As to `Nc1ccc(C(=O)Nc2cccc(N)c2)cc1`, the RP-LC retention time was 752 s.

On to `Cc1cccc(-c2nnc(-c3cccc(S(=O)(=O)N(C)C)c3)o2)c1`, for which the RP-LC retention time was 982 s. The same measure for `O=C(CN1c2ccc(F)cc2-c2ccccc2S1(=O)=O)Nc1cccc(F)c1`: 982 s.
